Data published in patent publication US9387221B2, “SDF-1 binding nucleic acids and the use thereof in cancer treatment” (NOXXON Pharma AG, priority 2010, dated 2016).
Entries after “also recorded” stand apart in the source; their conditions may differ. {PEG40k} = 40 kDa polyethylene glycol

Key:
[1] = tested on: SDF-1 dose-dependent adhesion of Jurkat cells to fibronectin; assay: Adhesion of Jurkat cells to fibronectin; type: cell-based, human; details: SDF-1 plus increasing concentrations of Spiegelmer
Procedure: The T cell leukemia Jurkat (ACC 282) were purchased from the DSMZ were maintained in RPMI medium 1640 GlutaMAX (Invitrogen) supplemented with 10% FBS (Biochrom) and penicillin-streptomycin. For the adhesion experiments 96-well culture plates were incubated with 10 μg/mL human fibronectin (R&D systems) in PBS for 2 hours at 37° C. […] The wells were then washed with RPMI medium. Jurkat cells from logarithmic growth phase were washed with RPMI medium (+0.1% BSA) and incubated with various concentrations of human SDF-1 (R&D systems) and NOX-A12 for 15 minutes at 37° C. NOX-A12 and SDF-1 were preincubated for 30 minutes. lx 105 stimulated Jurkat cells were seeded to the Fibronectin-coated 96-well plates and incubated for 30 minutes. The plates were then washed five times with RPMI medium. Attached cells were quantified by using Cell Titer Glo Reagent (Promega). Therefor, 50 μL RPMI medium was added to each well, followed by 50 μL of Cell Titer Glo Reagent. The plates were mixed for two minutes, followed by incubation at room temperature for 10 minutes. Cell number was quantified by relative luminescence signal.

[2] = tested on: SDF-1 induced sprouting, rings from rat aorta; assay: Aortic ring sprouting assay; type: cell-based; details: 10 nM SDF-1 + 1 μM Spiegelmer, 6 days; listed as 193-G2-012-5′-PEG
Procedure: After 6 to 7 days, sprouting (i.e. outgrowth of endothelial cells) was analysed by taking pictures and determining a sprouting index.
Aortae from male rats were obtained from Bagheri Life sciences (Berlin, Germany). The aortae were prepared freshly and transported on ice in MCDB 131-Medium (Invitrogen, Karlsruhe, Germany) containing 50 units/ml penicillin, 50 μg/ml streptomycin (both Invitrogen, Karlsruhe, Germany) and 2.5 μg/ml fungizone (Cambrex, USA).
For an experiment a single aorta was transferred to a cell culture dish together with the medium and residual connective tissue was removed. Then the aorta was cut with a scalpel into rings of about 1 to 2 mm length. The rings were washed intensively (at least five times) in Medium199 (Invitrogen, Karlsruhe, Germany) and then placed in wells of a 24 well plate, containing 450 μl of collagen solution per well. […]
Sprouting was documented by taking pictures with a digital camera. […] Pictures were analysed with the Scion Image image processing software. […] A plot histogram along this line was generated by the software, histograms were printed and peaks (representing sprouts crossing the line) were counted. […] 4 to 5 rings per condition were evaluated. […]

Jurkat cells = assay: Proliferation of Jurkat cells in coculture with stromal MS-5 cells; type: cell-based, human; details: 40 hours
Procedure: Aim of the experiment was to show whether SDF-1 binding Spiegelmer NOX-A12 has an impact on proliferation of leukemia cells in coculture with bone marrow (abbr. BM) stromal cells. Murine stromal MS-5 cells secreting SDF-1 were incubated with SDF-1 binding Spiegelmer NOX-A12 or the non-functional Spiegelmer revNOX-A12. The leukemic T-cell line Jurkat was added to the confluent stromal cell layer and incubated for 40 hours at 37° C. and 5% CO2. Cell numbers were quantified by Flow Cytometry using the Guava EasyCyte and ViaCount Reagent.
The murine stromal cell line MS-5 (ACC 441) were purchased from the DSMZ and were cultured in MEM alpha GlutaMAX (Invitrogen) with 10% FBS and penicillin-streptomycin. For proliferation coculture experiments stromal MS-5 cells were seeded the day before onto 24-well plates (the inner eight wells) at a concentration of 8×10^4/mL/well in MEM alpha GlutaMAX medium (+10% FBS) and incubated at 37° C. in 5% CO2. The confluent stromal cell layer was washed and 0.5 mL RPMI medium 1640 (+1% FBS) was added to the wells. […] 2×10^5 Jurkat cells (logarithmic growth phase; washed once) in RPMI medium 1640 (+1% FBS) were added to the confluent stromal cell layer and incubated for […] at 37° C. with 5% CO2. […] Cell viability and cell number were determined by Flow Cytometry using the Guava EasyCyte 6HT/2L.

5′-40 kDa-PEG-GCGUGGUGUGAUCUAGAUGUAUUGGCUGAUCCUAGUCAGGUACGC (5' {PEG40k}, sugars by position and backbone not given here) [NOX-A12]
reversal of SDF-1 effect on adhesion of Jurkat cells to fibronectin [1]: reverse this effect | blockage of SDF-1 induced sprouting (sprouting index) [2]: significantly different from that for SDF-1; also recorded: could be blocked | effect on Jurkat cell number (Jurkat cells; 1 nM): no effect | reduction of Jurkat cell number (Jurkat cells; 10 or 100 nM): up to 20%
